Source: paper PMC4877593, “Design and Synthesis of Potent in Vitro and in Vivo Anticancer Agents Based on 1-(3′,4′,5′-Trimethoxyphenyl)-2-Aryl-1H-Imidazole” (Scientific Reports, 2016)
Read-outs that look alike come from different tables or passages of the source.

What was measured:
[1] = tested on: panel of seven human tumor cell lines; details: previously published triazole; ref 16d; read-out: IC50 values in the same seven cell lines (range); cited from earlier work
HL-60 = assay: In vitro antiproliferative activity (MTT), HL-60; assay type: cell-based; details: Homo sapiens, tumor cell proliferation, 72 h, mean ± SE
[2] = tested on: panel of seven human tumor cell lines; assay: Antiproliferative activity across the panel of seven human tumor cell lines; assay type: cell-based
Experimental: (§1) Human T-cell leukemia (CCRF-CEM and Jurkat) and human B-cell leukemia (SEM) cells were grown in RPMI-1640 medium (Gibco, Milano, Italy). Breast adenocarcinoma (MCF7), human cervix carcinoma (HeLa), and human colon adenocarcinoma (HT-29) cells were grown in DMEM medium (Gibco, Milano, Italy), all supplemented with 115 units/mL penicillin G (Gibco, Milano, Italy), 115 μg/mL streptomycin (Invitrogen, Milano, Italy), and 10% fetal bovine serum (Invitrogen, Milano, Italy). Stock solutions (10 mM) of the different compounds were obtained by dissolving them in dimethyl sulfoxide (DMSO). Individual wells of a 96-well tissue culture microtiter plate were inoculated with 100 μL of complete medium containing 8 × 10^3 cells. The plates were incubated at 37 °C in a humidified 5% CO2 incubator for 18 h prior to the experiments. After medium removal, 100 μL of fresh medium containing the test compound at different concentrations was added to each well in triplicate and incubated at 37 °C for 72 h. The percentage of DMSO in the medium never exceeded 0.25%. This was also the maximum DMSO concentration in all cell-based assays described below. […] Different concentrations of the test compounds were added, and viability was determined 72 h later by the MTT test. For cytotoxicity evaluations in resting PBL cultures, non-adherent cells were resuspended (5 × 10^5 cells/mL) and treated for 72 h with the test compounds, as described above.

HT-29 = assay: In vitro antiproliferative activity (MTT), HT-29; assay type: cell-based; details: Homo sapiens, tumor cell proliferation, 72 h, mean ± SE
Experimental: as §1

HeLa = assay: In vitro antiproliferative activity (MTT), HeLa; assay type: cell-based; details: Homo sapiens, tumor cell proliferation, 72 h, mean ± SE
Experimental: as §1

RS4;11 = assay: In vitro antiproliferative activity (MTT), RS4;11; assay type: cell-based; details: Homo sapiens, tumor cell proliferation, 72 h, mean ± SE
MCF-7 = assay: In vitro antiproliferative activity (MTT), MCF-7; assay type: cell-based; details: Homo sapiens, MCF7, tumor cell proliferation, 72 h, mean ± SE
Experimental: as §1

Jurkat = assay: In vitro antiproliferative activity (MTT), Jurkat; assay type: cell-based; details: Homo sapiens, tumor cell proliferation, 72 h, mean ± SE
Experimental: as §1

bovine brain tubulin = assay: Inhibition of tubulin polymerization (turbidimetry); assay type: biochemical
Experimental: To evaluate the effect of the compounds on tubulin assembly in vitro[22], varying concentrations of compounds were preincubated with 10 μM bovine brain tubulin in glutamate buffer at 30 °C and then cooled to 0 °C. After addition of 0.4 mM GTP (final concentration), the mixtures were transferred to 0 °C cuvettes in a recording spectrophotometer equipped with an electronic temperature controller and warmed to 30 °C. Tubulin assembly was followed turbidimetrically at 350 nm. […] The ability of the test compounds to inhibit colchicine binding to tubulin was measured as described, except that the reaction mixtures contained 1 μM tubulin, 5 μM [^3H]colchicine and 1 or 5 μM test compound.

A549 = assay: In vitro antiproliferative activity (MTT), A549; assay type: cell-based; details: Homo sapiens, tumor cell proliferation, 72 h, mean ± SE
Experimental: as §1

[3] = tested on: HCT-15 (human colon adenocarcinoma); details: cited from earlier work
tubulin = details: read-out: IC50 inhibitor of tubulin polymerization; cited from earlier work
[4] = tested on: NCI-H460 (human lung large cell carcinoma); details: cited from earlier work
[5] = average over the seven cell lines, read-out: average IC50 values
[6] = tubulin at 10 μM, 20 min incubation, read-out: Tubulin assembly IC50 ± S.D.
[7] = range over seven cancer cell lines, read-out: IC50 values in the seven cell lines (range)
[8] = repeated beside the calculated energies, read-out: inhibition of tubulin polymerization IC50 (Table 4)

Row | Compound | IC50 [1] | IC50 (HL-60) | IC50 [2, 5] | IC50 (HT-29) | IC50 (HeLa) | IC50 (RS4;11) | IC50 (MCF-7) | IC50 (Jurkat) | IC50 (bovine brain tubulin; [6]) | IC50 (A549) | IC50 [3] | IC50 (tubulin) | IC50 [4] | IC50 [2, 7] | melting point | IC50 (bovine brain tubulin; [8])
1 | 1-(3′,4′,5′-trimethoxyphenyl)-5-(3′-chloro-4′-ethoxyphenyl) triazole | 3 to 20 nM |  |  |  |  |  |  |  |  |  |  |  |  |  |  | 
2 | COc1ccc(/C=C\c2cc(OC)c(OC)c(OC)c2)cc1O [CA-4, Combretastatin A-4, reference compound] |  | 1 ± 0.2 nM | 523 nM | 180 ± 30 nM | 4 ± 1 nM | 370 ± 100 nM | 5 ± 0.6 nM | 0.8 ± 0.2 nM | […] | 3100 ± 100 nM |  |  |  |  |  | 
3 | COc1cc(-n2ccnc2-c2ccc(N(C)C)cc2)cc(OC)c1OC [Compound 3a, 1-(3′,4′,5′-trimethoxyphenyl)-2-(4′-N,N-dimethylaminophenyl)-1H-imidazole] |  |  |  |  |  |  |  |  |  |  | 80 nM | 35000 nM | 270 nM |  |  | 
4 | COc1ccc(-c2nccn2-c2cc(OC)c(OC)c(OC)c2)cc1 [Compound 3b, reference compound] |  | 4770 ± 120 nM | 1710 nM | 233 ± 52 nM | 210 ± 10.2 nM | 5400 ± 950 nM | 230 ± 55 nM | 133 ± 31 nM |  | 1010 ± 104 nM | 1600 nM |  | 1100 nM | 210 to 5400 nM |  | 
5 | COc1cc(-n2ccnc2-c2ccc(C)cc2)cc(OC)c1OC [Compound 4a, 1-(3′,4′,5′-Trimethoxyphenyl)-2-p-tolyl-1H-imidazole] |  | 2100 ± 252 nM |  | 1920 ± 354 nM | 1260 ± 172 nM | > 10000 nM | 2800 ± 721 nM | 760 ± 136 nM |  | 4730 ± 328 nM |  |  |  |  | 142 to 144 °C | 
6 | CCc1ccc(-c2nccn2-c2cc(OC)c(OC)c(OC)c2)cc1 [Compound 4b, 2-(4′-Ethylphenyl)-1-(3′,4′,5′-trimethoxyphenyl)-1H-imidazole] |  | 4800 ± 451 nM |  | 1400 ± 200 nM | 1980 ± 126 nM | 5680 ± 259 nM | 2090 ± 374 nM | 4570 ± 758 nM |  | 7000 ± 1150 nM |  |  |  |  | 130 to 132 °C | 
7 | COc1cc(-n2ccnc2-c2ccc(SC)cc2)cc(OC)c1OC [Compound 4c, 1-(3′,4′,5′-Trimethoxyphenyl)-2-(4′-(methylthio)phenyl)-1H-imidazole] |  | 333 ± 41 nM |  | 330 ± 36 nM | 337 ± 48 nM | 800 ± 58 nM | 1360 ± 350 nM | 407 ± 24 nM |  | 5600 ± 352 nM |  |  |  |  | 158 to 160 °C | 
8 | COc1ccc(-c2nccn2-c2cc(OC)c(OC)c(OC)c2)cc1F [Compound 4d, 2-(3′-Fluoro-4′-methoxyphenyl)-1-(3′,4′,5′-trimethoxyphenyl)-1H-imidazole] |  | 29 ± 9.5 nM |  | 112 ± 15 nM | 51 ± 6.5 nM | 217 ± 46 nM | 74 ± 17 nM | 90 ± 23 nM |  | 121 ± 56 nM |  |  |  |  |  | 
9 | COc1ccc(-c2nccn2-c2cc(OC)c(OC)c(OC)c2)cc1Cl [Compound 4e, 2-(3′-Chloro-4′-methoxyphenyl)-1-(3′,4′,5′-trimethoxyphenyl)-1H-imidazole] |  | 453 ± 14 nM |  | 647 ± 83 nM | 263 ± 39 nM | 715 ± 148 nM | 666 ± 231 nM | 365 ± 25 nM |  | 2600 ± 422 nM |  |  |  |  | 176 to 178 °C | 
10 | COc1ccc(-c2nccn2-c2cc(OC)c(OC)c(OC)c2)cc1C [Compound 4f, 2-(4′-Methoxy-3′-methylphenyl)-1-(3′,4′,5′-trimethoxyphenyl)-1H-imidazole] |  | 413 ± 27 nM |  | 377 ± 33 nM | 330 ± 25 nM | 475 ± 106 nM | 509 ± 25 nM | 136 ± 38 nM |  | 4720 ± 509 nM |  |  |  |  | 128 to 130 °C | 
11 | COc1cc(-c2nccn2-c2cc(OC)c(OC)c(OC)c2)ccc1C [Compound 4g, 2-(4′-Methyl-3′-methoxyphenyl)-1-(3′,4′,5′-trimethoxyphenyl)-1H-imidazole] |  | > 10000 nM |  | > 10000 nM | 623 ± 98 nM | 2570 ± 784 nM | > 10000 nM | 4930 ± 536 nM |  | > 10000 nM |  |  |  |  |  | 
12 | COc1cc(-n2ccnc2-c2cc(C)c(OC)c(C)c2)cc(OC)c1OC [Compound 4h, 2-(4′-Methoxy-3′,5′-dimethylphenyl)-1-(3′,4′,5′-trimethoxyphenyl)-1H-imidazole] |  | 3470 ± 467 nM |  | > 10000 nM | 9160 ± 1590 nM | > 10000 nM | > 10000 nM | > 10000 nM |  | > 10000 nM |  |  |  |  | 153 to 155 °C | 
13 | COc1ccc(-c2nccn2-c2cc(OC)c(OC)c(OC)c2)cc1OC [Compound 4i, 1-(3′,4′,5′-Trimethoxyphenyl)-2-(3′,4′-dimethoxyphenyl)-1H-imidazole] |  | 3930 ± 517 nM |  | > 10000 nM | > 10000 nM | > 10000 nM | > 10000 nM | > 10000 nM |  | > 10000 nM |  |  |  |  |  | 
14 | COc1cc(-n2ccnc2-c2ccc(OC(F)(F)F)cc2)cc(OC)c1OC [Compound 4j, 1-(3′,4′,5′-Trimethoxyphenyl)-2-(4′-(trifluoromethoxy)phenyl)-1H-imidazole] |  | > 10000 nM |  | > 10000 nM | > 10000 nM | > 10000 nM | > 10000 nM | 6630 ± 338 nM |  | > 10000 nM |  |  |  |  | 125 to 127 °C | 
15 | CCOc1ccc(-c2nccn2-c2cc(OC)c(OC)c(OC)c2)cc1 [Compound 4k, 2-(4′-Ethoxyphenyl)-1-(3′,4′,5′-trimethoxyphenyl)-1H-imidazole] |  | 4.8 ± 1.9 nM | 7.1 nM | 1.8 ± 0.8 nM | 3.7 ± 0.12 nM | 34.7 nM | 1.5 ± 0.2 nM | 1.2 ± 0.5 nM | 630 nM | 1.9 ± 1 nM |  |  |  | 1.8 to 34.7 nM | 132 to 134 °C | 630 nM
16 | CCOc1cccc(-c2nccn2-c2cc(OC)c(OC)c(OC)c2)c1 [Compound 4l, 2-(3′-Ethoxyphenyl)-1-(3′,4′,5′-trimethoxyphenyl)-1H-imidazole] |  | > 10000 nM |  | > 10000 nM | > 10000 nM | > 10000 nM | > 10000 nM | > 10000 nM |  | > 10000 nM |  |  |  |  | 121 to 122 °C | 
17 | CCOc1ccccc1-c1nccn1-c1cc(OC)c(OC)c(OC)c1 [Compound 4m, 2-(2′-Ethoxyphenyl)-1-(3′,4′,5′-trimethoxyphenyl)-1H-imidazole] |  | > 10000 nM |  | > 10000 nM | > 10000 nM | > 10000 nM | > 10000 nM | > 10000 nM |  | > 10000 nM |  |  |  |  | 130 to 132 °C | 
18 | CCOc1ccc(-c2nccn2-c2cc(OC)c(OC)c(OC)c2)cc1F [Compound 4n, 2-(3′-Fluoro-4′-ethoxyphenyl)-1-(3′,4′,5′-trimethoxyphenyl)-1H-imidazole] |  | 3.5 ± 0.73 nM | 7.2 nM | 7.5 ± 1.2 nM | 1.5 ± 0.32 nM | 8.6 ± 1.1 nM | 3.4 ± 0.38 nM | 12 ± 6.6 nM | 570 nM | 14 ± 2.3 nM |  |  |  | 1.5 to 14.2 nM | 127 to 129 °C | 
19 | CCSc1ccc(-c2nccn2-c2cc(OC)c(OC)c(OC)c2)cc1 [Compound 4p, 2-(4′-(Ethylthio)phenyl)-1-(3′,4′,5′-trimethoxyphenyl)-1H-imidazole] |  | 12 ± 2.5 nM |  | 174 ± 16 nM | 48 ± 2.5 nM | 85 ± 20 nM | 69 ± 7 nM | 127 ± 27 nM |  | 228 ± 81 nM |  |  |  |  | 143 to 145 °C | 
20 | CCCOc1ccc(-c2nccn2-c2cc(OC)c(OC)c(OC)c2)cc1 [Compound 4q, 1-(3′,4′,5′-Trimethoxyphenyl)-2-(4′-n-propoxyphenyl)-1H-imidazole] |  | 63 ± 17.6 nM |  | 15 ± 1.3 nM | 2.9 ± 0.8 nM | 91 ± 8.9 nM | 1.7 ± 0.6 nM | 42 ± 3.9 nM | 1400 ± 100 nM | 63 ± 18.1 nM |  |  |  |  |  | 1400 nM
